Measured values: patent US11173151B2, “Substituted triazole derivatives and uses thereof” (BAYER AKTIENGESELLSCHAFT, priority 2017, dated 2021)

Experiments:
human V1a receptor = target: T1, human V1a receptor (Homo sapiens, UniProt P37288); assay: Cellular in vitro assay for determining vasopressin receptor activity, V1a receptor cell line (CHO, aequorin luminescence); format: cell-based; conditions: for IC50: CHO cell line transfected with human V1a receptor, [Arg]-vasopressin at EC50 concentration, read-out: IC50 hV1a; for ratio IC50 hV2/hV1a: selectivity ratio IC50 hV2 / IC50 hV1a
T1 construct: expressed in transfected cells; host or cells: CHO K1 (ATCC), also stably transfected with a modified aequorin
T1 sequence (P37288 whole entry): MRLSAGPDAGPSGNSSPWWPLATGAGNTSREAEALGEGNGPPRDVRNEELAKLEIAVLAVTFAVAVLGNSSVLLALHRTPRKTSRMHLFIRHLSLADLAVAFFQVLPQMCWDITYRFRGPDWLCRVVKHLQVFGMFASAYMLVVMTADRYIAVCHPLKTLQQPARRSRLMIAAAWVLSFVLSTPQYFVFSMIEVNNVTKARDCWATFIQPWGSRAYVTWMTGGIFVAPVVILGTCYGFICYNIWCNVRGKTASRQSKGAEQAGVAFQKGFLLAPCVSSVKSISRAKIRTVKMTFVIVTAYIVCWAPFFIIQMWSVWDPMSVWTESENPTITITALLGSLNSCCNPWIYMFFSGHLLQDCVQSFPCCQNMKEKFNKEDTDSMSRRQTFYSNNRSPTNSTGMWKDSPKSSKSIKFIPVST
How it was run: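 IC50 from inhibition of [Arg]-vasopressin (EC50 concentration)-evoked aequorin luminescence in CHO K1 cells, with 10-min compound pretreatment.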

human V2 receptor = target: T2, human V2 receptor (Homo sapiens, UniProt P30518); assay: Cellular in vitro assay for determining vasopressin receptor activity, V2 receptor cell line (CHO, CRE-luciferase); format: cell-based; conditions: CHO cell line transfected with human V2 receptor; [Arg8]-vasopressin at EC50 concentration, 3 hours; read-out: IC50 hV2
T2 construct: expressed in transfected cells; host or cells: CHO K1 (ATCC) expressing firefly luciferase under a CRE-responsive promoter
T2 sequence (P30518 whole entry): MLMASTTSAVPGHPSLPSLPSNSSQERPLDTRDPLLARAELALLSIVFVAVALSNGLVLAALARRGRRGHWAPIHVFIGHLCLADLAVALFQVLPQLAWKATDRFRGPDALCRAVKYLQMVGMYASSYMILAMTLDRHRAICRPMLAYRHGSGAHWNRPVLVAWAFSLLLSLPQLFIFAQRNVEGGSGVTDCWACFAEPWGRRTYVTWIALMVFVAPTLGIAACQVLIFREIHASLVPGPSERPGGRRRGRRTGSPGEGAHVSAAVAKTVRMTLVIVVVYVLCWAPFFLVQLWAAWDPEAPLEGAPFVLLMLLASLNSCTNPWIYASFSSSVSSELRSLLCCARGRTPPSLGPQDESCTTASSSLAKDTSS

How did the IC50 (human V1a receptor) turn out when `CC(NC(=O)c1ccccc1-n1cnc(Cn2nc(-c3ccc(Cl)cc3)n(C[C@H](O)C(F)(F)F)c2=O)n1)c1ccon1` (stereo partly drawn) [Example 216, 2-[3-({3-(4-Chlorophenyl)-5-oxo-4-[(2S)-3,3,3-trifluoro-2-hydroxypropyl]-4,5-dihydro-1H-1,2,4-triazol-1-yl}methyl)-1H-1,2,4-triazol-1-yl]-N-[1-(1,2-oxazol-3-yl)ethyl]benzamide] was run?
Its IC50 is 12 nM.

And the “ratio IC50 hV2/hV1a” value (human V1a receptor)?
The value was 14.2.

What about the IC50 (human V2 receptor) of the same compound?
Its IC50 is 170 nM.

How did the IC50 (human V1a receptor) turn out when `O=C(Nc1ccc(F)cc1O)c1ccccc1-n1cnc(Cn2nc(-c3ccc(Cl)cc3)n(C[C@H](O)C(F)(F)F)c2=O)n1` [Example 217, 2-[3-({3-(4-Chlorophenyl)-5-oxo-4-[(2S)-3,3,3-trifluoro-2-hydroxypropyl]-4,5-dihydro-1H-1,2,4-triazol-1-yl}methyl)-1H-1,2,4-triazol-1-yl]-N-(4-fluoro-2-hydroxyphenyl)benzamide] was run?
The IC50 was 3.95 nM.

And the “ratio IC50 hV2/hV1a” value (human V1a receptor)?
Its value is 23.7.

And the IC50 (human V2 receptor)?
The IC50 was 93.5 nM.

`O=C(Nc1n[nH]cc1Cl)c1ccccc1-n1cnc(Cn2nc(-c3ccc(Cl)cc3)n(C[C@H](O)C(F)(F)F)c2=O)n1` [Example 218, 2-[3-({3-(4-Chlorophenyl)-5-oxo-4-[(2S)-3,3,3-trifluoro-2-hydroxypropyl]-4,5-dihydro-1H-1,2,4-triazol-1-yl}methyl)-1H-1,2,4-triazol-1-yl]-N-(4-chloro-1H-pyrazol-3-yl)benzamide] was tested. Which IC50 (human V1a receptor) did it give?
The IC50 was 0.32 nM.

What about the “ratio IC50 hV2/hV1a” value (human V1a receptor) of the same compound?
Its value is 24.4.

What about the IC50 (human V2 receptor) of the same compound?
The IC50 was 7.8 nM.

With `O=C(Nc1cccc[n+]1[O-])c1ccccc1-n1cnc(Cn2nc(-c3ccc(Cl)cc3)n(C[C@H](O)C(F)(F)F)c2=O)n1` [Example 219, 2-[3-({3-(4-Chlorophenyl)-5-oxo-4-[(2S)-3,3,3-trifluoro-2-hydroxypropyl]-4,5-dihydro-1H-1,2,4-triazol-1-yl}methyl)-1H-1,2,4-triazol-1-yl]-N-(1-oxidopyridin-2-yl)benzamide] as the compound, how does the IC50 (human V1a receptor) read?
The IC50 was 21 nM.

And the “ratio IC50 hV2/hV1a” value (human V1a receptor)?
The value was 2.0.

What about the IC50 (human V2 receptor) of the same compound?
The IC50 was 41.5 nM.

What does the source list for `Cc1cncc(NC(=O)c2ccccc2-n2cnc(Cn3nc(-c4ccc(Cl)cc4)n(C[C@H](O)C(F)(F)F)c3=O)n2)c1` [Example 220, 2-[3-({3-(4-Chlorophenyl)-5-oxo-4-[(2S)-3,3,3-trifluoro-2-hydroxypropyl]-4,5-dihydro-1H-1,2,4-triazol-1-yl}methyl)-1H-1,2,4-triazol-1-yl]-N-(5-methylpyridin-3-yl)benzamide]?
IC50 (human V1a receptor): 3.65 nM; ratio IC50 hV2/hV1a (human V1a receptor): 58.9; IC50 (human V2 receptor): 215 nM

How did the IC50 (human V1a receptor) turn out when `Cc1ncccc1NC(=O)c1ccccc1-n1cnc(Cn2nc(-c3ccc(Cl)cc3)n(C[C@H](O)C(F)(F)F)c2=O)n1` [Example 221, 2-[3-({3-(4-Chlorophenyl)-5-oxo-4-[(2S)-3,3,3-trifluoro-2-hydroxypropyl]-4,5-dihydro-1H-1,2,4-triazol-1-yl}methyl)-1H-1,2,4-triazol-1-yl]-N-(2-methylpyridin-3-yl)benzamide] was run?
The IC50 was 4.95 nM.

And the “ratio IC50 hV2/hV1a” value (human V1a receptor)?
The value was 92.9.

And the IC50 (human V2 receptor)?
Its IC50 is 460 nM.

For `CC1CCC(C)C1NC(=O)c1ccccc1-n1cnc(Cn2nc(-c3ccc(Cl)cc3)n(C[C@H](O)C(F)(F)F)c2=O)n1` (stereo partly drawn) [Example 222, 2-[3-({3-(4-Chlorophenyl)-5-oxo-4-[(2S)-3,3,3-trifluoro-2-hydroxypropyl]-4,5-dihydro-1H-1,2,4-triazol-1-yl}methyl)-1H-1,2,4-triazol-1-yl]-N-(2,5-dimethylcyclopentyl)benzamide], which IC50 (human V1a receptor) is on record?
The IC50 was 4.85 nM.

What about the “ratio IC50 hV2/hV1a” value (human V1a receptor) of the same compound?
Its value is 38.1.

What about the IC50 (human V2 receptor) of the same compound?
Its IC50 is 185 nM.

Which results are given for `O=C(Nc1nccs1)c1ccccc1-n1cnc(Cn2nc(-c3ccc(Cl)cc3)n(C[C@H](O)C(F)(F)F)c2=O)n1` [Example 223, 2-[3-({3-(4-Chlorophenyl)-5-oxo-4-[(2S)-3,3,3-trifluoro-2-hydroxypropyl]-4,5-dihydro-1H-1,2,4-triazol-1-yl}methyl)-1H-1,2,4-triazol-1-yl]-N-(1,3-thiazol-2-yl)benzamide]?
IC50 (human V1a receptor): 1.5 nM; ratio IC50 hV2/hV1a (human V1a receptor): 0.8; IC50 (human V2 receptor): 1.15 nM

How did the IC50 (human V1a receptor) turn out when `NC(=O)CNC(=O)c1ccccc1-n1cnc(Cn2nc(-c3ccc(Cl)cc3)n(C[C@H](O)C(F)(F)F)c2=O)n1` [Example 225, N-(2-Amino-2-oxoethyl)-2-[3-({3-(4-chlorophenyl)-5-oxo-4-[(2S)-3,3,3-trifluoro-2-hydroxypropyl]-4,5-dihydro-1H-1,2,4-triazol-1-yl}methyl)-1H-1,2,4-triazol-1-yl]benzamide] was run?
Its IC50 is 5.5 nM.

What about the “ratio IC50 hV2/hV1a” value (human V1a receptor) of the same compound?
Its value is 38.2.

What about the IC50 (human V2 receptor) of the same compound?
The IC50 was 210 nM.

How did the IC50 (human V1a receptor) turn out when `O=C(Nc1ccc(Cl)nc1)c1ccccc1-n1cnc(Cn2nc(-c3ccc(Cl)cc3)n(C[C@H](O)C(F)(F)F)c2=O)n1` [Example 226, 2-[3-({3-(4-Chlorophenyl)-5-oxo-4-[(2S)-3,3,3-trifluoro-2-hydroxypropyl]-4,5-dihydro-1H-1,2,4-triazol-1-yl}methyl)-1H-1,2,4-triazol-1-yl]-N-(6-chloropyridin-3-yl)benzamide] was run?
The IC50 was 1.3 nM.

And the “ratio IC50 hV2/hV1a” value (human V1a receptor)?
The value was 5.7.

And the IC50 (human V2 receptor)?
The IC50 was 7.45 nM.

What does the source list for `O=C(Nc1cccc(O)c1)c1ccccc1-n1cnc(Cn2nc(-c3ccc(Cl)cc3)n(C[C@H](O)C(F)(F)F)c2=O)n1` [Example 227, 2-[3-({3-(4-Chlorophenyl)-5-oxo-4-[(2S)-3,3,3-trifluoro-2-hydroxypropyl]-4,5-dihydro-1H-1,2,4-triazol-1-yl}methyl)-1H-1,2,4-triazol-1-yl]-N-(3-hydroxyphenyl)benzamide]?
IC50 (human V1a receptor): 1.21 nM; ratio IC50 hV2/hV1a (human V1a receptor): 55.8; IC50 (human V2 receptor): 67.5 nM

Which results are given for `Cc1cc(NC(=O)c2ccccc2-n2cnc(Cn3nc(-c4ccc(Cl)cc4)n(C[C@H](O)C(F)(F)F)c3=O)n2)ccc1F` [Example 228, 2-[3-({3-(4-Chlorophenyl)-5-oxo-4-[(2S)-3,3,3-trifluoro-2-hydroxypropyl]-4,5-dihydro-1H-1,2,4-triazol-1-yl}methyl)-1H-1,2,4-triazol-1-yl]-N-(4-fluoro-3-methylphenyl)benzamide]?
IC50 (human V1a receptor): 5.65 nM; ratio IC50 hV2/hV1a (human V1a receptor): 26.5; IC50 (human V2 receptor): 150 nM

Which results are given for `Cc1ccc(F)cc1NC(=O)c1ccccc1-n1cnc(Cn2nc(-c3ccc(Cl)cc3)n(C[C@H](O)C(F)(F)F)c2=O)n1` [Example 229, 2-[3-({3-(4-Chlorophenyl)-5-oxo-4-[(2S)-3,3,3-trifluoro-2-hydroxypropyl]-4,5-dihydro-1H-1,2,4-triazol-1-yl}methyl)-1H-1,2,4-triazol-1-yl]-N-(5-fluoro-2-methylphenyl)benzamide]?
IC50 (human V1a receptor): 2.35 nM; ratio IC50 hV2/hV1a (human V1a receptor): 21.1; IC50 (human V2 receptor): 49.5 nM

How did the IC50 (human V1a receptor) turn out when `Cc1ccnc(NC(=O)c2ccccc2-n2cnc(Cn3nc(-c4ccc(Cl)cc4)n(C[C@H](O)C(F)(F)F)c3=O)n2)c1` [Example 230, 2-[3-({3-(4-Chlorophenyl)-5-oxo-4-[(2S)-3,3,3-trifluoro-2-hydroxypropyl]-4,5-dihydro-1H-1,2,4-triazol-1-yl}methyl)-1H-1,2,4-triazol-1-yl]-N-(4-methylpyridin-2-yl)benzamide] was run?
The IC50 was 8.5 nM.

What about the “ratio IC50 hV2/hV1a” value (human V1a receptor) of the same compound?
Its value is 6.6.

What about the IC50 (human V2 receptor) of the same compound?
Its IC50 is 56.5 nM.

Which IC50 (human V1a receptor) does the source give for `CONC(=O)c1ccccc1-n1cnc(Cn2nc(-c3ccc(Cl)cc3)n(C[C@H](O)C(F)(F)F)c2=O)n1` [Example 232, 2-[3-({3-(4-Chlorophenyl)-5-oxo-4-[(2S)-3,3,3-trifluoro-2-hydroxypropyl]-4,5-dihydro-1H-1,2,4-triazol-1-yl}methyl)-1H-1,2,4-triazol-1-yl]-N-methoxybenzamide] here?
Its IC50 is 2.2 nM.

What about the “ratio IC50 hV2/hV1a” value (human V1a receptor) of the same compound?
Its value is 243.2.

What about the IC50 (human V2 receptor) of the same compound?
The IC50 was 535 nM.

`N[C@H]1CCCC[C@@H]1NC(=O)c1ccccc1-n1cnc(Cn2nc(-c3ccc(Cl)cc3)n(C[C@H](O)C(F)(F)F)c2=O)n1` [Example 233, N-[(1S,2S)-2-Aminocyclohexyl]-2-[3-({3-(4-chlorophenyl)-5-oxo-4-[(2S)-3,3,3-trifluoro-2-hydroxypropyl]-4,5-dihydro-1H-1,2,4-triazol-1-yl}methyl)-1H-1,2,4-triazol-1-yl]benzamide] was tested. Which IC50 (human V1a receptor) did it give?
The IC50 was 14.4 nM.

And the “ratio IC50 hV2/hV1a” value (human V1a receptor)?
The value was 463.7.

What about the IC50 (human V2 receptor) of the same compound?
Its IC50 is 6700 nM.

`N[C@@H]1CCCC[C@@H]1NC(=O)c1ccccc1-n1cnc(Cn2nc(-c3ccc(Cl)cc3)n(C[C@H](O)C(F)(F)F)c2=O)n1` [Example 234, N-[(1S,2R)-2-Aminocyclohexyl]-2-[3-({3-(4-chlorophenyl)-5-oxo-4-[(2S)-3,3,3-trifluoro-2-hydroxypropyl]-4,5-dihydro-1H-1,2,4-triazol-1-yl}methyl)-1H-1,2,4-triazol-1-yl]benzamide] was tested. Which IC50 (human V1a receptor) did it give?
Its IC50 is 6.95 nM.

And the “ratio IC50 hV2/hV1a” value (human V1a receptor)?
Its value is 417.3.

What about the IC50 (human V2 receptor) of the same compound?
The IC50 was 2900 nM.

How did the IC50 (human V1a receptor) turn out when `O=C(NCc1ccc(F)cc1)c1ccccc1-n1cnc(Cn2nc(-c3ccc(Cl)cc3)n(C[C@H](O)C(F)(F)F)c2=O)n1` [Example 235, 2-[3-({3-(4-Chlorophenyl)-5-oxo-4-[(2S)-3,3,3-trifluoro-2-hydroxypropyl]-4,5-dihydro-1H-1,2,4-triazol-1-yl}methyl)-1H-1,2,4-triazol-1-yl]-N-(4-fluorobenzyl)benzamide] was run?
Its IC50 is 8.7 nM.

And the “ratio IC50 hV2/hV1a” value (human V1a receptor)?
The value was 40.8.

What about the IC50 (human V2 receptor) of the same compound?
The IC50 was 355 nM.

For `O=C(NCc1cccc(F)c1)c1ccccc1-n1cnc(Cn2nc(-c3ccc(Cl)cc3)n(C[C@H](O)C(F)(F)F)c2=O)n1` [Example 236, 2-[3-({3-(4-Chlorophenyl)-5-oxo-4-[(2S)-3,3,3-trifluoro-2-hydroxypropyl]-4,5-dihydro-1H-1,2,4-triazol-1-yl}methyl)-1H-1,2,4-triazol-1-yl]-N-(3-fluorobenzyl)benzamide], which IC50 (human V1a receptor) is on record?
Its IC50 is 7.05 nM.

And the “ratio IC50 hV2/hV1a” value (human V1a receptor)?
The value was 48.2.

And the IC50 (human V2 receptor)?
The IC50 was 340 nM.

Which results are given for `C[C@H](NC(=O)c1ccccc1-n1cnc(Cn2nc(-c3ccc(Cl)cc3)n(C[C@H](O)C(F)(F)F)c2=O)n1)C(N)=O` [Example 237, N-[(2S)-1-Amino-1-oxopropan-2-yl]-2-[3-({3-(4-chlorophenyl)-5-oxo-4-[(2S)-3,3,3-trifluoro-2-hydroxypropyl]-4,5-dihydro-1H-1,2,4-triazol-1-yl}methyl)-1H-1,2,4-triazol-1-yl]benzamide]?
IC50 (human V1a receptor): 15.5 nM; ratio IC50 hV2/hV1a (human V1a receptor): 28.7; IC50 (human V2 receptor): 445 nM
